For orientation: IC50 means the concentration that gives 50% inhibition. Low readings indicate higher potency, high ones lower potency. The melting point is the temperature, or range, at which the solid turns liquid.

For one data set, the system named is YAP-TEAD interaction. The data set can be described thus: SK-HEP-1 reporter assay (8xTEAD responsive elements driving NanoLuc luciferase). It counts as cell-based. The following applies: Homo sapiens, SK-HEP1, SK-HEP-1 reporter assay. The essentials: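 Luminescence after NanoGlo addition gave reporter activity, and IC50 values came from duplicate 10-point curves (top final concentration 30 μM, 0.3% DMSO). The cells were SK-HEP-1 with a stably integrated 8×TEAD-driven NanoLuc gene, exposed to compound for 24 h at 37 °C.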
(In general: A reporter such as luciferase makes a cellular process visible.)

In the next data set the test system is NCI-H226 cells. The data set can be described thus: Viability assay in NCI-H226 (Yap-dependent) cells, CyQUANT. The format is cell-based. The following applies: Homo sapiens. How it is done:
(§1) Viability Assay in NCI-H226 (Yap-Dependent) and SW620 Yap KO (Yap Independent) Cells
(§2) The ability of YAP-TEAD inhibitors to inhibit tumor cell growth was evaluated using two different cell lines: NCI-H226, which is a YAP dependent cell line, and SW620 cells, where YAP and TAZ were knocked out using CRISPR to generate a YAP independent cell line.
(§3) For the assay, cells were treated in duplicates with the test compounds in a 10-point dose, 1:3 dilution steps, with the top concentration starting at 30 μM (final concentration in assay). After a 96 hour incubation at 37° C., 95% rH, and 5% CO2, a cell-permeant DNA-binding dye that stains only healthy cells (CyQUANT®, Promega) was added to the cells, allowing the quantification of cell viability.
(§4) Cell Media: The NCI-H226 cells were cultured in the following media: RPMI 1640, +10% FBS, +1× GlutaMAX, +10 mM HEPES, +0.5% Pen/Strep. The SW620-KO cells were cultured in the following media: DMEM/F-12, +10% FBS, +1× GlutaMAX, +10 mM HEPES, +0.5% Pen/Strep.
(§5) Reagents: The reagents used are listed below:
(§6) Cell culture: The cells were examined using an inverted microscope to check for health, cell density, etc. To dissociate adherent cells, the monolayer of cells was washed once with pre-warmed PBS. After removing the PBS, 3 ml pre-warmed Accutase was added to a F75 flask, dispersed evenly and the flask was allowed to sit in incubator for ˜4-5 minutes.
(§7) When a single cell suspension was obtained, 7 ml of prewarmed growth media was added and resuspended with the cells. The cell suspension was transferred to a sterile 15 ml conical centrifuge tube, and spun for 5 min at 300×g, RT. The supernatant was discarded and the pellet was resuspended in 10 ml of pre-warmed growth media.
(§8) The total cell count was determined, and 20 μl of the desired cell number was added to each well of a 384 well plate using a Multidrop Combi. The plates were then incubated for 24 hours at 37° C., 95% rH, and 5% CO2.
(§9) Compound treatment: 24 hours after seeding, the cells were treated with compounds.
(§10) A 1:333 dilution of compounds, diluted in DMSO, was made to get a final concentration of 0.3% DMSO per well. To transfer the compounds to the assay plate, 120 nl was shot from Labcyte low dead volume plates to the cell plates containing 20 μl media/well with the ECHO 555 liquid handling system.
(§11) After treatment, the cells were fed with 20 μl fresh pre-warmed assay media using a Multidrop combi.
(§12) The assay plates were then incubated for 96 h at 37° C., 95% rH, and 5% CO2.
(§13) 96 h after treatment 30 μl of CyQuant® reagent was added to the assay plates using a Multidrop combi in the dark. The plates were then incubated for 1 hour at 37° C., 95% rH and 5% CO2. Thereafter, the assay plates were removed from the incubator and allowed to equilibrate to RT for 30 min in the dark without lid. Finally, they were measured using an EnVision microplate reader with a FITC bottom read program.

The next data set relates to SW620 Yap KO cells. Put plainly: Viability assay in SW620 Yap KO (Yap independent) cells, CyQUANT. The following applies: Homo sapiens, SW-620. The format is cell-based. How it is done:
as §1, §2, §3, §4, §5, §6, §7, §8, §9, §10, §11, §12, §13

On to `CCCn1ncc(CNC(=O)c2ccc3c(c2)c2cn(C)nc2n3-c2ccc(C(F)(F)F)cc2)c1C` [B123^], for which the IC50 in the data set on YAP-TEAD interaction was in the range of 10 to 100 nM; with NCI-H226 cells it was 100 to 1000 nM.
For `COc1nc(C)cc(CNC(=O)c2ccc3c(c2)c2cn(C)nc2n3-c2ccc(C(F)(F)F)cc2)n1` [B126^], the IC50 in the data set on YAP-TEAD interaction is 10 to 100 nM; with SW620 Yap KO cells it was more than 30000 nM; in the data set with NCI-H226 cells, 1 to 100 nM.
The like results for `Cn1cc2c3cc(C(=O)O)ccc3n(Cc3ccc(C(F)(F)F)cc3)c2n1` [Example 5, 2-Methyl-8-{[4-(trifluoromethyl)phenyl]methyl}-2H,8H-pyrazolo[3,4-b]indole-5-carboxylic acid] were, in that order, 10 to 100 nM, more than 30000 nM and 1 to 100 nM.
For `Cn1cc2c3cc(C(=O)O)ccc3n(-c3cccc(C(F)(F)F)c3)c2n1` [Example 6, 2-Methyl-8-[3-(trifluoromethyl)phenyl]-2H,8H-pyrazolo[3,4-b]indole-5-carboxylic acid], the IC50 is 10 to 100 nM in the data set on YAP-TEAD interaction, more than 30000 nM in the data set on SW620 Yap KO cells and 100 to 1000 nM in the data set with NCI-H226 cells.
In the case of `Cc1ccc(-n2c3ccc(C(=O)O)cc3c3cn(C)nc32)cc1` [Example 9, 2-Methyl-8-(4-methylphenyl)-2H,8H-pyrazolo[3,4-b]indole-5-carboxylic acid], the figures for the IC50 in the data set with SW620 Yap KO cells and in the data set on NCI-H226 cells were 10000 to 30000 nM and 1 to 100 nM, respectively.
On to `Cn1cc2c3cc(C(=O)O)ccc3n(-c3ccc(F)cc3)c2n1` [Example 10, 8-(4-fluorophenyl)-2-methyl-2H,8H-pyrazolo[3,4-b]indole-5-carboxylic acid], for which the IC50 with YAP-TEAD interaction is 10 to 100 nM; in the data set with SW620 Yap KO cells it was more than 30000 nM; with NCI-H226 cells, 100 to 1000 nM.
In the case of `Cn1cc2c3cc(C(=O)O)ccc3n(Cc3ccccc3)c2n1` [Example 12, 8-(Benzyl)-2-methyl-2H,8H-pyrazolo[3,4-b]indole-5-carboxylic acid], the values for the IC50 in the data set on YAP-TEAD interaction, in the data set with SW620 Yap KO cells and in the data set with NCI-H226 cells were 10 to 100 nM, more than 30000 nM and 100 to 1000 nM, respectively.
Taken in the same sequence, the figures for `COc1ccc(-n2c3ccc(C(=O)O)cc3c3cn(C)nc32)cc1` [Example 14, 8-(4-methoxyphenyl)-2-methyl-2H,8H-pyrazolo[3,4-b]indole-5-carboxylic acid] were 10 to 100 nM, more than 30000 nM and 100 to 1000 nM.
As for `CCOc1ccc(-n2c3ccc(C(=O)O)cc3c3cn(C)nc32)cc1` [Example 15, 8-(4-Ethoxyphenyl)-2-methyl-2H,8H-pyrazolo[3,4-b]indole-5-carboxylic acid], the melting point lay in the range of 179 to 181 °C. Further, the half-inhibitory concentration (IC50) in the data set with YAP-TEAD interaction is 10 to 100 nM. The IC50 with SW620 Yap KO cells was more than 30000 nM. The IC50 with NCI-H226 cells lay within 100 to 1000 nM.
As for `COC(=O)c1ccc2c(c1)c1nn(C)cc1n2-c1ccc(C(F)(F)F)cc1` [Example 16, Methyl 2-methyl-4-[4-(trifluoromethyl)phenyl]pyrazolo[4,3-b]indole-7-carboxylate], the melting point was 111 to 112 °C. This molecule also yielded an IC50 in the data set on YAP-TEAD interaction of 10 to 100 nM. In the data set with SW620 Yap KO cells, this molecule yielded a half-maximal inhibitory concentration (IC50) of 1000 to 10000 nM. This molecule also came in with an IC50 in the data set with NCI-H226 cells of 1 to 100 nM.
Turning to `CNC(=O)c1ccc2c(c1)c1nn(C)cc1n2-c1ccc(C(F)(F)F)cc1` [Example 17, N,2-dimethyl-4-[4-(trifluoromethyl)phenyl]pyrazolo [4,3-b]indole-7-carboxamide], the IC50 was 10 to 100 nM in the data set on YAP-TEAD interaction, more than 30000 nM in the data set with SW620 Yap KO cells and 100 to 1000 nM with NCI-H226 cells.
Taken in the same sequence, the figures for `Cn1cc2c3cc(C(=O)O)ccc3n(-c3ccc(OC(F)(F)F)cc3)c2n1` [Example 18, 2-methyl-8-[4-(trifluoromethoxy)phenyl]-2H,8H-pyrazolo[3,4-b]indole-5-carboxylic acid] were 1 to 10 nM, more than 30000 nM and 100 to 1000 nM.
Taken in the same sequence, the figures for `Cn1cc2c3cc(C(=O)O)ccc3n(-c3ccc(C4CCCC4)cc3)c2n1` [Example 22, 8-(4-cyclopentylphenyl)-2-methyl-2H,8H-pyrazolo [3,4-b]indole-5-carboxylic acid] were 10 to 100 nM, more than 30000 nM and 100 to 1000 nM.
The like results for `Cn1cc2c(n1)c1cc(F)ccc1n2-c1ccc(C(F)(F)F)cc1` [Example 26, 7-fluoro-2-methyl-4-[4-(trifluoromethyl)phenyl]pyrazolo[4,3-b]indole] were, in that order, 10 to 100 nM, 10000 to 30000 nM and more than 10000 nM.
`Cn1cc2c3cc(C(=O)NCc4ccncc4)ccc3n(-c3ccc(C(F)(F)F)cc3)c2n1` [Example 28, 2-methyl-N—[(pyridin-4-yl)methyl]-8-[4-(trifluoromethyl)phenyl]-2H, 8H-pyrazolo[3,4-b]indole-5-carboxamide] yielded a melting point of 181 to 185 °C. In the data set on YAP-TEAD interaction, this molecule showed a 50% inhibitory concentration (IC50) of more than 10000 nM.
Turning to `CSc1ccc2c(c1)c1cn(C)nc1n2-c1ccc(C)cc1` [Example 31, 2-methyl-8-(4-methylphenyl)-5-(methylsulfanyl)-2H,8H-pyrazolo[3,4-b]indole], the values for the IC50 with YAP-TEAD interaction, with SW620 Yap KO cells and in the data set with NCI-H226 cells were 10 to 100 nM, more than 30000 nM and more than 10000 nM, respectively.
Take `Cn1cc2c(n1)c1cc([S+](C)[O-])ccc1n2-c1ccc(C(F)(F)F)cc1` (stereo not shown) [Example 32, 7-methanesulfinyl-2-methyl-4-[4-(trifluoromethyl)phenyl]-2H,4H-pyrazolo[4,3-b]indole]: the IC50 in the data set on YAP-TEAD interaction is 100 to 10000 nM; with NCI-H226 cells, more than 10000 nM.
As to `Cn1cc2c(n1)c1cc(S(N)(=O)=O)ccc1n2-c1ccc(C(F)(F)F)cc1` [Example 34, 2-methyl-4-[4-(trifluoromethyl)phenyl]-2H,4H-pyrazolo[4,3-b]indole-7-sulfonamide], the IC50 is 10 to 100 nM in the data set on YAP-TEAD interaction, more than 30000 nM in the data set on SW620 Yap KO cells and more than 10000 nM with NCI-H226 cells.
The like results for `Cn1cc2c(n1)c1cc(S(C)(=N)=O)ccc1n2-c1ccc(C(F)(F)F)cc1` (stereo not shown) [Example 35, Imino(methyl){2-methyl-4-[4-(trifluoromethyl)phenyl]-2H,4H-pyrazolo[4,3-b]indol-7-yl}-lambda6-sulfanone] were, in that order, 1 to 10 nM, more than 30000 nM and 100 to 1000 nM.
Turning to `CN(C)S(=N)(=O)c1ccc2c(c1)c1nn(C)cc1n2-c1ccc(C(F)(F)F)cc1` (stereo not shown) [Example 36, N,N,2-Trimethyl-4-[4-(trifluoromethyl)phenyl]-2H,4H-pyrazolo[4,3-b]indole-7-sulfonoimidamide], the IC50 in the data set on YAP-TEAD interaction was 1 to 10 nM; with SW620 Yap KO cells, more than 30000 nM; in the data set with NCI-H226 cells, 1 to 100 nM.
Taken in the same sequence, the figures for `Cn1cc2c3cc(C(=O)NCc4n[nH]cc4C4CC4)ccc3n(-c3ccc(C(F)(F)F)cc3)c2n1` [Example B22, N-[(4-cyclopropyl-1H-pyrazol-3-yl)methyl]-2-methyl-8-[4-(trifluoromethyl)phenyl]-2H,8H-pyrazolo[3,4-b]indole-5-carboxamide] were 10 to 100 nM, more than 30000 nM and 1 to 100 nM.
The like results for `CCn1cc(C(O)CNC(=O)c2ccc3c(c2)c2cn(C)nc2n3-c2ccc(C(F)(F)F)cc2)cn1` (stereo not shown) [Example B36, N-[2-(1-ethyl-1H-pyrazol-4-yl)-2-hydroxyethyl]-2-methyl-8-[4-(trifluoromethyl)phenyl]-2H,8H-pyrazolo[3,4-b]indole-5-carboxamide] were, in that order, 10 to 100 nM, more than 30000 nM and 1 to 100 nM.
On to `COCC(NC(=O)c1ccc2c(c1)c1cn(C)nc1n2-c1ccc(C(F)(F)F)cc1)c1cnn(C)c1` (stereo not shown) [Example B68, N-[2-methoxy-1-(1-methyl-1H-pyrazol-4-yl)ethyl]-2-methyl-8-[4-(trifluoromethyl)phenyl]-2H,8H-pyrazolo[3,4-b]indole-5-carboxamide], for which the IC50 is 10 to 100 nM in the data set on YAP-TEAD interaction, more than 30000 nM in the data set on SW620 Yap KO cells and 100 to 1000 nM in the data set with NCI-H226 cells.

The record behind these values is patent US20230174538A1, “Tricyclic heterocycles” (Merck Patent GmbH, priority 2020, published 2023).
